Source: patent US9708258B2, “Indole 3-carbinol derivatives” (Cadila Pharmaceuticals Ltd, priority 2013, dated 2017)

The compounds below were run on Carrageenan acute paw edema in Wistar rats (assay: anti-inflammatory effect in the acute paw edema model (Carrageenan) in Wistar rats). Conditions: 50 mg/kg oral; 1 hr after carrageenan; basal = 100.
Type: in vivo
Description: General Procedure for Screening:
Evaluated the anti-inflammatory effect of compounds of formula-I using acute paw edema model in Wistar rats using the following procedure.
All animals will be divided into required number of groups (n=6 per group; 8-12 weeks age) on the basis of body weight. After grouping basal paw volume of all animals will be measured with the help of plethysmometer instrument followed by drug administration by oral route. After 1 hr of dosing 100 μL of 1% Carrageenan prepared in normal saline will be administered in hind paw of all animals by S.C route. After 1 hr of carrageenan dosing paw volume of all animals will be measure up to 6 hr at each 1 hr interval.

In order of falling “paw volume, Time 1 hr” value:
1. CC(C)(C)OC(=O)n1cc(COC(=O)CCC(=O)O)c2ccccc21 [CPL-2012-136, Succinic acid mono-(1-tert-butoxycarbonyl-1H-indol-3-ylmethyl) ester]  117.26
2. CCC(=O)OCc1cn(C(=O)OC(C)(C)C)c2ccccc12 [CPL-2012-139, 3-Propionyloxymethyl-indole-1-carboxylic acid tert-butyl ester]  116.73
3. CC(C)(C)OC(=O)n1cc(C(O)c2cc(F)c(F)cc2F)c2ccccc21 (stereo not drawn) [CPL-2013-156, 3-[Hydroxy-(2,4,5-trifluoro-phenyl)-methyl]indole-1-carboxylic acid tert-butyl ester]  115.2
4. CCC(=O)OCc1cn(C(=O)OCc2ccccc2)c2ccccc12 [CPL-2013-158, 3-Propionyloxymethyl-indole-1-carboxylic acid benzyl ester]  113.82
5. CCCCC(=O)OCc1cn(C(=O)OC(C)(C)C)c2ccccc12 [CPL-2012-144, 3-Pentanoyloxymethyl-indole-1-carboxylic acid tert-butyl ester]  112.98

Same assay, conditions: 50 mg/kg oral; 2 hr after carrageenan; basal = 100

In order of falling “paw volume, Time 2 hr” value:
1. CCCCC(=O)OCc1cn(C(=O)OC(C)(C)C)c2ccccc12 [CPL-2012-144, 3-Pentanoyloxymethyl-indole-1-carboxylic acid tert-butyl ester]  123.96
2. CCC(=O)OCc1cn(C(=O)OC(C)(C)C)c2ccccc12 [CPL-2012-139, 3-Propionyloxymethyl-indole-1-carboxylic acid tert-butyl ester]  123.68
3. CC(C)(C)OC(=O)n1cc(COC(=O)CCC(=O)O)c2ccccc21 [CPL-2012-136, Succinic acid mono-(1-tert-butoxycarbonyl-1H-indol-3-ylmethyl) ester]  121.86
4. CCC(=O)OCc1cn(C(=O)OCc2ccccc2)c2ccccc12 [CPL-2013-158, 3-Propionyloxymethyl-indole-1-carboxylic acid benzyl ester]  115.12
5. CC(C)(C)OC(=O)n1cc(C(O)c2cc(F)c(F)cc2F)c2ccccc21 (stereo not drawn) [CPL-2013-156, 3-[Hydroxy-(2,4,5-trifluoro-phenyl)-methyl]indole-1-carboxylic acid tert-butyl ester]  113.62

Same assay, conditions: 50 mg/kg oral; 3 hr after carrageenan; basal = 100

In order of falling “paw volume, Time 3 hr” value:
1. CCCCC(=O)OCc1cn(C(=O)OC(C)(C)C)c2ccccc12 [CPL-2012-144, 3-Pentanoyloxymethyl-indole-1-carboxylic acid tert-butyl ester]  125.7
2. CC(C)(C)OC(=O)n1cc(COC(=O)CCC(=O)O)c2ccccc21 [CPL-2012-136, Succinic acid mono-(1-tert-butoxycarbonyl-1H-indol-3-ylmethyl) ester]  123.85
3. CCC(=O)OCc1cn(C(=O)OC(C)(C)C)c2ccccc12 [CPL-2012-139, 3-Propionyloxymethyl-indole-1-carboxylic acid tert-butyl ester]  122.72
4. CC(C)(C)OC(=O)n1cc(C(O)c2cc(F)c(F)cc2F)c2ccccc21 (stereo not drawn) [CPL-2013-156, 3-[Hydroxy-(2,4,5-trifluoro-phenyl)-methyl]indole-1-carboxylic acid tert-butyl ester]  116.25
5. CCC(=O)OCc1cn(C(=O)OCc2ccccc2)c2ccccc12 [CPL-2013-158, 3-Propionyloxymethyl-indole-1-carboxylic acid benzyl ester]  112.02

Same assay, conditions: 50 mg/kg oral; 4 hr after carrageenan; basal = 100

In order of rising “paw volume, Time 4 hr” value:
1. CCC(=O)OCc1cn(C(=O)OCc2ccccc2)c2ccccc12 [CPL-2013-158, 3-Propionyloxymethyl-indole-1-carboxylic acid benzyl ester]  112.46
2. CC(C)(C)OC(=O)n1cc(C(O)c2cc(F)c(F)cc2F)c2ccccc21 (stereo not drawn) [CPL-2013-156, 3-[Hydroxy-(2,4,5-trifluoro-phenyl)-methyl]indole-1-carboxylic acid tert-butyl ester]  115.73
3. CCC(=O)OCc1cn(C(=O)OC(C)(C)C)c2ccccc12 [CPL-2012-139, 3-Propionyloxymethyl-indole-1-carboxylic acid tert-butyl ester]  120.63
4. CC(C)(C)OC(=O)n1cc(COC(=O)CCC(=O)O)c2ccccc21 [CPL-2012-136, Succinic acid mono-(1-tert-butoxycarbonyl-1H-indol-3-ylmethyl) ester]  121.57
5. CCCCC(=O)OCc1cn(C(=O)OC(C)(C)C)c2ccccc12 [CPL-2012-144, 3-Pentanoyloxymethyl-indole-1-carboxylic acid tert-butyl ester]  123.32

Same assay, conditions: 50 mg/kg oral; 5 hr after carrageenan; basal = 100

In order of rising “paw volume, Time 5 hr” value:
1. CCC(=O)OCc1cn(C(=O)OCc2ccccc2)c2ccccc12 [CPL-2013-158, 3-Propionyloxymethyl-indole-1-carboxylic acid benzyl ester]  108.11
2. CC(C)(C)OC(=O)n1cc(C(O)c2cc(F)c(F)cc2F)c2ccccc21 (stereo not drawn) [CPL-2013-156, 3-[Hydroxy-(2,4,5-trifluoro-phenyl)-methyl]indole-1-carboxylic acid tert-butyl ester]  113.69
3. CCC(=O)OCc1cn(C(=O)OC(C)(C)C)c2ccccc12 [CPL-2012-139, 3-Propionyloxymethyl-indole-1-carboxylic acid tert-butyl ester]  115.55
4. CC(C)(C)OC(=O)n1cc(COC(=O)CCC(=O)O)c2ccccc21 [CPL-2012-136, Succinic acid mono-(1-tert-butoxycarbonyl-1H-indol-3-ylmethyl) ester]  119.72
5. CCCCC(=O)OCc1cn(C(=O)OC(C)(C)C)c2ccccc12 [CPL-2012-144, 3-Pentanoyloxymethyl-indole-1-carboxylic acid tert-butyl ester]  123.07

Same assay, conditions: 50 mg/kg oral; 6 hr after carrageenan; basal = 100

In order of rising “paw volume, Time 6 hr” value:
1. CCC(=O)OCc1cn(C(=O)OCc2ccccc2)c2ccccc12 [CPL-2013-158, 3-Propionyloxymethyl-indole-1-carboxylic acid benzyl ester]  107.2
2. CC(C)(C)OC(=O)n1cc(C(O)c2cc(F)c(F)cc2F)c2ccccc21 (stereo not drawn) [CPL-2013-156, 3-[Hydroxy-(2,4,5-trifluoro-phenyl)-methyl]indole-1-carboxylic acid tert-butyl ester]  111.56
3. CC(C)(C)OC(=O)n1cc(COC(=O)CCC(=O)O)c2ccccc21 [CPL-2012-136, Succinic acid mono-(1-tert-butoxycarbonyl-1H-indol-3-ylmethyl) ester]  111.76
4. CCC(=O)OCc1cn(C(=O)OC(C)(C)C)c2ccccc12 [CPL-2012-139, 3-Propionyloxymethyl-indole-1-carboxylic acid tert-butyl ester]  113.42
5. CCCCC(=O)OCc1cn(C(=O)OC(C)(C)C)c2ccccc12 [CPL-2012-144, 3-Pentanoyloxymethyl-indole-1-carboxylic acid tert-butyl ester]  121.46
